pIC50: −log10 of the molar value. Counter-ions that a name gives are not always drawn.
How the values were obtained:
Assay type in all cases: cell-based
MYB mRNA = assay: Splicing RT-qPCR assay, MYB canonical (CJ) and alternative (AJ) junction mRNA; conditions: Homo sapiens, A673 or K562 cells, 24 hours treatment; for pIC50: decrease in CJ mRNA; for AC50: increase in AJ mRNA
Procedure: (§1) Compounds described herein were used to modulate RNA transcript abundance in cells. The expression of a target mRNA was measured by detecting the formation of an exon-exon junction in the canonical transcript (CJ). A compound mediated exon-inclusion event was detected by observing an increase in formation of a new junction with an alternative exon (AJ). Real-time qPCR assays were used to detect these splicing switches and interrogate the potency of various compounds towards different target genes. A high-throughput real time quantitative PCR (RT-qPCR) assay was developed to measure these two isoforms of the mRNA (CJ and AJ) for exemplary genes, such as HTT, SMN2, and MYB, together with a control housekeeping gene, GAPDH or GUSB or PPIA, used for normalization. Briefly, the A673 or K562 cell line was treated with various compounds described herein (e.g., compounds of Formula (I)). After treatment, the levels of the HTT, MYB, or SMN2 mRNA targets were determined from each sample of cell lysate by cDNA synthesis followed by qPCR.
• Cells-to-CT 1-step kit: ThermoFisher A25602, Cells-to-CT lysis reagent: ThermoFisher 4391851C, TaqMan™ Fast Virus 1-Step Master Mix: ThermoFisher 4444436 • GAPDH: VIC-PL, ThermoFisher 4326317E (Assay: Hs99999905_ml)—used for K562/suspension cell lines • GUSB: VIC-PL, ThermoFisher 4326320E (Assay: Hs99999908_ml)—used for K562/suspension cell lines • PPIA: VIC-PL, ThermoFisher 4326316E (Assay: Hs99999904_ml)—used for A673/adherent cell lines
(§2) The A673 cell line was cultured in DMEM with 10% FBS. Cells were diluted with full growth media and plated in a 96-well plate (15,000 cells in 100 ul media per well). The plate was incubated at 37° C. with 5% CO2 for 24 hours to allow cells to adhere. An 11-point 3-fold serial dilution of the compounds was made in DMSO then diluted in media in an intermediate plate. Compounds were transferred from the intermediate plate to the cell plate with the top dose at a final concentration of 10 uM in the well. Final DMSO concentration was kept at or below 0.25%. The cell plate was returned to the incubator at 37° C. with 5% CO2 for an additional 24 hours.
(§3) The K562 cell line was cultured in IMDM with 10% FBS. For K562, cells were diluted with full growth media and plated in either a 96-well plate (50,000 cells in 50 uL media per well) or a 384-well plate (8,000-40,000 cells in 45 uL media per well). An 11-point 3-fold serial dilution of the compounds were made in DMSO then diluted in media in an intermediate plate. Compound was transferred from the intermediate plate to the cell plate with the top dose at a final concentration of 10 uM in the well. Final DMSO concentration was kept at or below 0.25%. Final volume was 100 uL for 96-well plate and 50 uL for 384-well plate. The cell plate was then placed in an incubator at 37° C. with 5% CO2 for 24 hours.
The cells were then gently washed with 50 uL-100 uL cold PBS before proceeding to addition of lysis buffer. 30 uL-50 μL of room temperature lysis buffer with DNAse I (and optionally RNAsin) was added to each well. Cells were shaken/mixed thoroughly at room temperature for 5-10 minutes for lysis to take place and then 3 uL-5 μL of room temperature stop solution was added and wells were shaken/mixed again. After 2-5 minutes, the cell lysate plate was transferred to ice for RT-qPCR reaction setup. The lysates could also be frozen at −80° C. for later use.
In some cases, a direct lysis buffer was used. An appropriate volume of 3×lysis buffer (10 mM Tris, 150 mM NaCl, 1.5%-2.5% Igepal and 0.1-1 U/uL RNAsin, pH 7.4) was directly added to either K562 or A673 cells in media and mixed by pipetting 3 times. The plates were then incubated at room temperature with shaking/rocking for 20-50 minutes to allow for lysis to take place. After this time, the cell lysate plate was transferred to ice to set up for the RT-qPCR reactions. The lysates could also be frozen at −80° C. for later use. […]

HTT CJ mRNA = assay: Gene panel canonical junction qPCR assay, HTT; conditions: Homo sapiens, larger gene panel, read-out: HTT IC50 (decrease in CJ mRNA levels)
Procedure: as §1, §2, §3
(§4) The data analysis was performed by first determining the ΔCt vs the housekeeper gene. This ΔCt was then normalized against the DMSO control (ΔΔCt) and converted to RQ (relative quantification) using the 2^(−ΔΔCt) equation. The RQ were then converted to a percentage response by arbitrarily setting an assay window of 3.5 and 4.0 ΔCt for HTT-CJ and MYB-CJ respectively and an assay window of 9 and 3 ΔCt for HTT-AJ and MYB-AJ in 96 well format (50,000 K562 cells/well and 15,000 A673 cells per well) and an assay window of 3 and 4 ΔCt for HTT-CJ and MYB-CJ respectively and an assay window of 5 and 3 ΔCt for HTT-AJ and MYB-AJ respectively in 384 well format (8,000 K562 cells/well example). […] The percentage response was then fitted to the 4 parametric logistic equation to evaluate the concentration dependence of compound treatment. The increase in AJ mRNA is reported as AC50 (compound concentration having […] in AJ increase) while the decrease in CJ mRNA levels is reported as IC50 (compound concentration having 50% response in CJ decrease).
(§5) Additional studies were carried out for a larger panel of genes using the protocol provided above. The junction between flanking upstream and downstream exons was used to design canonical junction qPCR assays. At least one of the forward primer, reverse primer or the CY5-labeled 5′ nuclease probe (with 3′ quencher such as ZEN/Iowa Black FQ) was designed to overlap with the exon junction to capture the CJ mRNA transcript. […]

SMN2 CJ mRNA = assay: Gene panel canonical junction qPCR assay, SMN2; conditions: Homo sapiens, larger gene panel, read-out: SMN2 IC50 (decrease in CJ mRNA levels)
Procedure: as §1, §2, §3, §4, §5

Row | Compound | pIC50 (MYB mRNA) | pIC50 (HTT CJ mRNA) | pIC50 (SMN2 CJ mRNA) | AC50 (MYB mRNA) [nM]
1 | Cc1cn2cc(-c3nn4c(=O)cc(N(C)C5CC(C)(C)NC(C)(C)C5)nc4s3)cc(F)c2n1 [Compound 215, 2-(8-fluoro-2-methylimidazo[1,2-a]pyridin-6-yl)-7-(methyl(2,2,6,6-tetramethylpiperidin-4-yl)amino)-5H-[1,3,4]thiadiazolo[3,2-a]pyrimidin-5-one] | 5.00 to 6.00 | 5.00 to 6.00 | 6.00 to 7.00 | 1000 to 10000
2 | Cc1cn2cc(-c3nn4c(=O)cc(N5CCNC6(CC6)C5)nc4s3)cc(F)c2n1 [Compound 216, 2-(8-fluoro-2-methylimidazo[1,2-a]pyridin-6-yl)-7-(4,7-diazaspiro[2.5]octan-7-yl)-5H-[1,3,4]thiadiazolo[3,2-a]pyrimidin-5-one] | 5.00 to 6.00 | 5.00 to 6.00 | 5.00 to 6.00 | 1000 to 10000
3 | Cc1cn2cc(-n3cnc4nc(N5CCNCC5)sc4c3=O)cc(F)c2n1 [Compound 226, 6-(8-fluoro-2-methylimidazo[1,2-a]pyridin-6-yl)-2-(piperazin-1-yl)thiazolo[4,5-d]pyrimidin-7(6H)-one] | 6.00 to 7.00 | 6.00 to 7.00 | 6.00 to 7.00 | 100 to 1000
4 | Cc1cn2cc(-n3cnc4nc(N(C)C5CC(C)(C)NC(C)(C)C5)sc4c3=O)cc(F)c2n1 [Compound 227, 6-(8-fluoro-2-methylimidazo[1,2-a]pyridin-6-yl)-2-(methyl(2,2,6,6-tetramethylpiperidin-4-yl)amino)thiazolo[4,5-d]pyrimidin-7(6H)-one, formate] | < 5.00 | < 5.00 | < 5.00 | > 10000
5 | Cc1cn2cc(-n3cnc4nc(N5CCN(C)CC5)sc4c3=O)cc(C(F)(F)F)c2n1 [Compound 230, 6-(2-methyl-8-(trifluoromethyl)imidazo[1,2-a]pyridin-6-yl)-2-(4-methylpiperazin-1-yl)thiazolo[4,5-d]pyrimidin-7(6H)-one] | 6.00 to 7.00 | < 5.00 | < 5.00 | 100 to 1000
6 | Cc1cn2cc(-c3nc4ncn(C5CCNCC5)c(=O)c4s3)cc(F)c2n1 [Compound 232, 2-(8-fluoro-2-methylimidazo[1,2-a]pyridin-6-yl)-6-(piperidin-4-yl)thiazolo[4,5-d]pyrimidin-7(6H)-one] | 6.00 to 7.00 | > 7.00 | > 7.00 | 100 to 1000
7 | Cc1cc(-c2nc3ncn(C4CCNCC4)c(=O)c3s2)cc2cn(C)nc12 [Compound 233, 2-(2,7-dimethyl-2H-indazol-5-yl)-6-(piperidin-4-yl)thiazolo[4,5-d]pyrimidin-7(6H)-one] | 6.00 to 7.00 | > 7.00 | > 7.00 | < 100
8 | Cc1cn2cc(-c3cc4ncn(C5CCNCC5)c(=O)c4s3)cc(F)c2n1 [Compound 235, 6-(8-fluoro-2-methylimidazo[1,2-a]pyridin-6-yl)-3-(piperidin-4-yl)thieno[3,2-d]pyrimidin-4(3H)-one] | 6.00 to 7.00 | > 7.00 | > 7.00 | 100 to 1000

Now from value to compound, other results behind:

Row | pIC50 (MYB mRNA) | pIC50 (HTT CJ mRNA) | pIC50 (SMN2 CJ mRNA) | Compound | AC50 (MYB mRNA) [nM]
9 | 5.00 to 6.00 | 5.00 to 6.00 | 6.00 to 7.00 | Cc1cn2cc(-c3nn4c(=O)cc(N5CCNCC5)nc4s3)cc(F)c2n1 [Compound 214, 2-(8-fluoro-2-methylimidazo[1,2-a]pyridin-6-yl)-7-(piperazin-1-yl)-5H-[1,3,4]thiadiazolo[3,2-a]pyrimidin-5-one] | 1000 to 10000
10 | 5.00 to 6.00 | 5.00 to 6.00 | 5.00 to 6.00 | Cc1cn2cc(-c3nn4c(=O)cc(N5CCN(C)CC5)nc4s3)cc(F)c2n1 [Compound 217, 2-(8-fluoro-2-methylimidazo[1,2-a]pyridin-6-yl)-7-(4-methylpiperazin-1-yl)-5H-[1,3,4]thiadiazolo[3,2-a]pyrimidin-5-one] | 1000 to 10000
11 | 5.00 to 6.00 | 5.00 to 6.00 | 5.00 to 6.00 | Cc1cn2cc(-c3nn4c(=O)cc(N5CCN(C)C6(CC6)C5)nc4s3)cc(F)c2n1 [Compound 218, 2-(8-fluoro-2-methylimidazo[1,2-a]pyridin-6-yl)-7-(4-methyl-4,7-diazaspiro[2.5]octan-7-yl)-5H-[1,3,4]thiadiazolo[3,2-a]pyrimidin-5-one] | 1000 to 10000
12 | < 5.00 | < 5.00 | < 5.00 | Cn1cc2cc(-n3cnc4nc(N5CCNCC5)sc4c3=O)ccc2n1 [Compound 225, 6-(2-methyl-2H-indazol-5-yl)-2-(piperazin-1-yl)thiazolo[4,5-d]pyrimidin-7(6H)-one] | > 10000
13 | 5.00 to 6.00 | 5.00 to 6.00 | 5.00 to 6.00 | Cc1cn2cc(-n3cnc4nc(N5CCN(C)CC5)sc4c3=O)cc(F)c2n1 [Compound 228, 6-(8-fluoro-2-methylimidazo[1,2-a]pyridin-6-yl)-2-(4-methylpiperazin-1-yl)thiazolo[4,5-d]pyrimidin-7(6H)-one] | 1000 to 10000
14 | < 5.00 | < 5.00 | < 5.00 | Cc1cn2cc(-n3cnc4nc(N5CCNCC5)sc4c3=O)cc(C(F)(F)F)c2n1 [Compound 229, 6-(2-methyl-8-(trifluoromethyl)imidazo[1,2-a]pyridin-6-yl)-2-(piperazin-1-yl)thiazolo[4,5-d]pyrimidin-7(6H)-one] | > 10000
15 | 6.00 to 7.00 | 6.00 to 7.00 | 5.00 to 6.00 | Cc1cn2nc(-c3nc4ncn(C5CCNCC5)c(=O)c4s3)cc(C)c2n1 [Compound 231, 2-(2,8-dimethylimidazo[1,2-b]pyridazin-6-yl)-6-(piperidin-4-yl)thiazolo[4,5-d]pyrimidin-7(6H)-one] | 100 to 1000
16 | 6.00 to 7.00 | 6.00 to 7.00 | > 7.00 | Cc1cc(-c2nc3ncn(C4CCN(C)CC4)c(=O)c3s2)cc2cn(C)nc12 [Compound 234, 2-(2,7-dimethyl-2H-indazol-5-yl)-6-(1-methylpiperidin-4-yl)thiazolo[4,5-d]pyrimidin-7(6H)-one] | < 100
